According to ChEMBL document CHEMBL1201862, “PubChem BioAssay data set” (2004):
Activity calls are given as the source filed them.

How the values were obtained:
Procathepsin L = Procathepsin L (Homo sapiens, UniProt P07711); experiment: CTSL1 protease inhibition – biochemical, QFRET, 1536-well, counter-screen for M1/M17 aminopeptidase inhibitor project, dose response (AID 2214)
Aminopeptidase N = target: T1, Aminopeptidase N (Plasmodium falciparum FcB1/Columbia, UniProt O96935); experiment: malaria alanyl aminopeptidase activity blockers – biochemical, fluorogenic H-Leu-NHMec substrate, 1536-well (AID 1445); set-up: species or system Plasmodium falciparum 3D7, 3D7
T1 sequence (O96935 whole entry): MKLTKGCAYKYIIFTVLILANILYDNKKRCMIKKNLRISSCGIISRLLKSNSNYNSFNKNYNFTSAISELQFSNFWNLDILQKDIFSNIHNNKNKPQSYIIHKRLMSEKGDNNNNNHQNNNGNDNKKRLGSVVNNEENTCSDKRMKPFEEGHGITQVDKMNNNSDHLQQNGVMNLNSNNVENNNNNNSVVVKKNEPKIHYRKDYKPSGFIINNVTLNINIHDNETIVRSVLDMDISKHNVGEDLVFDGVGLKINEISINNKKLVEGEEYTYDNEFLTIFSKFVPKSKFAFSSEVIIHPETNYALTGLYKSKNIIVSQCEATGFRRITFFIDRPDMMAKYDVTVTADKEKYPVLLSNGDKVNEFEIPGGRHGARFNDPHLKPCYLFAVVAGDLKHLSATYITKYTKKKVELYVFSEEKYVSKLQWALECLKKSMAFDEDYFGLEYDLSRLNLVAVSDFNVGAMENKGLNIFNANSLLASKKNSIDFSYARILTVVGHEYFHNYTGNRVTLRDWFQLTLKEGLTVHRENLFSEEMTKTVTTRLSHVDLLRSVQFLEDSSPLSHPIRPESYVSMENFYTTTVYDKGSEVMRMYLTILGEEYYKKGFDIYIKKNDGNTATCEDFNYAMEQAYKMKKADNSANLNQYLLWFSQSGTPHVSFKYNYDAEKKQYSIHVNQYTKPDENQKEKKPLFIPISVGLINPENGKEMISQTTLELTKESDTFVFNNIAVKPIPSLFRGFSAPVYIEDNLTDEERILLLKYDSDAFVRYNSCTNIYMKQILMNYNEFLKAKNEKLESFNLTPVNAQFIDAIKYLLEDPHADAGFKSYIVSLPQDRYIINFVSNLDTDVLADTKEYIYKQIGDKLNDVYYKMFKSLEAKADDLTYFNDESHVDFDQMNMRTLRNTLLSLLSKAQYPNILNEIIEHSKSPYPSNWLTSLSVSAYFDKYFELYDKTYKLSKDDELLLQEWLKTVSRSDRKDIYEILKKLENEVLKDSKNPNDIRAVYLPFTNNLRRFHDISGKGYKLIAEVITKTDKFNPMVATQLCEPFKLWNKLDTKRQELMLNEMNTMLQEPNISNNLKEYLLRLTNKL

Aspartyl aminopeptidase = target: T2, Aspartyl aminopeptidase (Plasmodium falciparum 3D7, UniProt Q8I2J3); experiment: Counterscreen for inhibitors of M1 and M17 aminopeptidases: QFRET-based biochemical high throughput dose response assay for inhibitors of the Plasmodium falciparum M18 Aspartyl Aminopeptidase (PFM18AAP). [Related PubChem assays: 1619 (Screening assay (M17LAP inhibitors).), 1445 (Screening assay (M1AAP inhibitors).)]
T2 sequence (Q8I2J3 whole entry): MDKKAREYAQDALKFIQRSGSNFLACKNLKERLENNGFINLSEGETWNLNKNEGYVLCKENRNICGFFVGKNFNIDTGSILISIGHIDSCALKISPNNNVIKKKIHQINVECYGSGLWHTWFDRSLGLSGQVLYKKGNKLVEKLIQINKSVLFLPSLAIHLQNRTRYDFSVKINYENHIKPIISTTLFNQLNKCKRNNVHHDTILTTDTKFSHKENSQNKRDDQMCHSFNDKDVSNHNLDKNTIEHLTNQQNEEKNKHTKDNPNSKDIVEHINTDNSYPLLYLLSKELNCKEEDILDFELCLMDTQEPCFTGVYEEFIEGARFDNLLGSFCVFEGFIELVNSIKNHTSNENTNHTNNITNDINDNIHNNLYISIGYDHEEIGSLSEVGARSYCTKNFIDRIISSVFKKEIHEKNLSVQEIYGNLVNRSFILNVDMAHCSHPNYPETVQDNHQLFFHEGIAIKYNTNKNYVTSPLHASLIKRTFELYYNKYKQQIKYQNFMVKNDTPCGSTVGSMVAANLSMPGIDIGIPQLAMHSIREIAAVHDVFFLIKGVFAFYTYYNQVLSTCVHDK

[1] = HIV-1 Vif–A3G interaction blockers – biochemical, TR-FRET, GST-Vif 1-94, biotin-A3G peptide, dose response retest, primary screen (AID 1117319); assay type: functional;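 also: TR-FRET signal of purified GST-Vif binding a biotinylated A3G peptide; inhibitors lower the FRET signal by blocking Vif and A3G binding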
[2] = target: Mitogen-activated protein kinase 10 (Homo sapiens, UniProt P53779); experiment: Dose response biochemical screening assay for inhibitors of c-Jun N-Terminal Kinase 3 (JNK3). [Related pubchem assays: 746 ]
[3] = viability inhibitors of stage V gametocytes – luminescence, dose response (AID 1117278); assay type: functional, cell-based;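 also: gametocytes exposed to compound for 24 hours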
[4] = viability loss in human Jurkat cells – cell-based, luminescence, cytotoxicity control for P. falciparum gametocyte viability project, dose response (AID 1117277); assay type: functional;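 also: potency reflects loss of cellular ATP meaning fewer viable cells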
[5] = target: T3, Aryl hydrocarbon receptor (Homo sapiens, UniProt P35869); experiment: Luminescence-based cell-based high throughput dose response assay for activators of the Aryl Hydrocarbon Receptor (AHR). [Related pubchem assays: 2796 (Primary screen (AHR activators in singlicate)), 2845 (Confirmation screen (AHR activators in triplicate)), 434939 (Counterscreen (PXR activators in triplicate)), 2804 (Summary (AHR activators))]; assay type: ADME
T3 sequence (P35869 whole entry): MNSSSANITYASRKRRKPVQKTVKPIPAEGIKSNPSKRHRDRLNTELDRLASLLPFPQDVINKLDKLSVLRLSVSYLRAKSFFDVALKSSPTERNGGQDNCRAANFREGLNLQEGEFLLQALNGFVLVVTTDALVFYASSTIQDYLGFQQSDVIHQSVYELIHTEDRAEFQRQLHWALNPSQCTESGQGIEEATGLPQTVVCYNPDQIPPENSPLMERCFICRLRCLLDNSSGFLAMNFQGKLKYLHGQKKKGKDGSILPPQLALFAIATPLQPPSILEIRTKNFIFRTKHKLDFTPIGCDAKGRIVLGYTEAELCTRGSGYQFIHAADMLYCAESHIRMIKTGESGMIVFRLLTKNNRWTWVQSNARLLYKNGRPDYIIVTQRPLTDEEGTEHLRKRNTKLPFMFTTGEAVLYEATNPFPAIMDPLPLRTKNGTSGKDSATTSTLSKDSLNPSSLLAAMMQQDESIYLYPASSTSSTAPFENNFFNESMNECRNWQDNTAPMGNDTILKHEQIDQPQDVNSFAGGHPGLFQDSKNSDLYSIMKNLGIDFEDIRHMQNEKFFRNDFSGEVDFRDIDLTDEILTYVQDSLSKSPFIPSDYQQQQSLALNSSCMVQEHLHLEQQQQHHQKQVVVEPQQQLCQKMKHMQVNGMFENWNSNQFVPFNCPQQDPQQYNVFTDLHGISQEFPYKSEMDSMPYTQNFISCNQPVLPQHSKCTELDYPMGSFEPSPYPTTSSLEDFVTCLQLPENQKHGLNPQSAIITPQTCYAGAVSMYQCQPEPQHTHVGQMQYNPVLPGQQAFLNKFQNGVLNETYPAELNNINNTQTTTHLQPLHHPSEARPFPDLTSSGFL

[6] = target: Sphingosine 1-phosphate receptor 2 (Homo sapiens, UniProt O95136); experiment: Dose Response Cell Based Assay for Antagonists of the S1P2 Receptor. [Related pubchem assays: 856, 736 ]; assay type: functional
[7] = Trypanosoma cruzi growth suppression in host cells – NIH3T3 host cells, beta-gal luminescence, confirmation (AID 2044); assay type: functional, cell-based;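 also: intracellular parasites grown in NIH/3T3 mouse fibroblasts as host cells; luminescent beta-galactosidase reporter signal from transgenic T. cruzi replicating inside host cells; inhibitors lower the luminescence signal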
[8] = NIH3T3 cell viability loss – ATP luminescence, mouse fibroblasts, counter-screen, dose response (AID 2010); assay type: functional, cell-based;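 also: cells exposed to compound for about 90 hours before reading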
Streptococcus = experiment: GAS UMAA2166 growth inhibition – luminescence, BacTiterGlo, counter-screen for streptokinase expression inhibitor project, dose response (AID 1915); assay type: functional, organism-based;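 also: potency for reduction of bacterial viability or growth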
Leucine aminopeptidase = target: T4, Leucine aminopeptidase (Plasmodium falciparum 3D7, UniProt Q8IL11); experiment: P. falciparum M17LAP inhibitors, primary screen, biochemical, fluorogenic H-Leu-NHMec substrate, 1536-well (AID 1619); assay type: functional
T4 sequence (Q8IL11 whole entry): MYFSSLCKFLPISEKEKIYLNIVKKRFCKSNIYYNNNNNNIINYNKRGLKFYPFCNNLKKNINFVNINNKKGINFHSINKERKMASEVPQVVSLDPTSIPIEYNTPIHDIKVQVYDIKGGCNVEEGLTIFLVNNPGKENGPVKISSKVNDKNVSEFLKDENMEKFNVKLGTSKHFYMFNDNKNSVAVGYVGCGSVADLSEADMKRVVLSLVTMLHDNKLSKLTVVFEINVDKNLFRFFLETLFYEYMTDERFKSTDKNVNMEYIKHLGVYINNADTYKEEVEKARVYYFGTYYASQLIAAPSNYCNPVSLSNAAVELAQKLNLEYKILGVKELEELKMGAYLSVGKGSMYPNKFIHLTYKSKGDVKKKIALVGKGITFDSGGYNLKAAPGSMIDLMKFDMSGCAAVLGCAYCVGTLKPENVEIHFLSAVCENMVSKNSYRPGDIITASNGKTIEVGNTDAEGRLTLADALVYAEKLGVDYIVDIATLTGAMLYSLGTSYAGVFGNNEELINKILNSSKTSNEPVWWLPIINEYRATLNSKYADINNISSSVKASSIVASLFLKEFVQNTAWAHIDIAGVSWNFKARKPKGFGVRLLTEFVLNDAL

Streptokinase A = target: T5, Streptokinase A (Streptococcus pyogenes serotype M1, UniProt P10520); experiment: viability-normalized secreted streptokinase activity reduction – plasminogen activation absorbance, OD405, dose response (AID 1914); assay type: functional, Streptococcus pyogenes M1 GAS;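 also: secreted streptokinase activity via plasminogen activation per viability signal from cell pellet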
T5 sequence (P10520 whole entry): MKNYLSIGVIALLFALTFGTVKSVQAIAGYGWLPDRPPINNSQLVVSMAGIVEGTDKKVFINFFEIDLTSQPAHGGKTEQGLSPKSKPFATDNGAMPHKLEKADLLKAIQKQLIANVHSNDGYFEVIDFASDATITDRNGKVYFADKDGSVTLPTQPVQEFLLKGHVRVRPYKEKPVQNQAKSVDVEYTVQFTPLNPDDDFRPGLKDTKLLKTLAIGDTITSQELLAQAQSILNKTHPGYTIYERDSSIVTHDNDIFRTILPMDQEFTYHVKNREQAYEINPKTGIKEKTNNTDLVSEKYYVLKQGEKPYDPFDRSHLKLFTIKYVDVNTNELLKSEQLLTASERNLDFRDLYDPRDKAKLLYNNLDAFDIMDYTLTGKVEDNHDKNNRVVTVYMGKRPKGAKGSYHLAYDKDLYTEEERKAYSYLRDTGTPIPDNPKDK

[9] = test system: Streptococcus sp. 'group A'; experiment: Streptococcus pyogenes SK(-)GAS viability under kanamycin – luminescence, BacTiterGlo, confirmation, counter-screen for streptokinase expression inhibitor project, dose response (AID 1900); assay type: functional, organism-based
[10] = HCT116 cell viability decrease, GSK3B pretreatment – CellTiter-Glo, IC50, dose response (AID 1117339); assay type: functional; conditions: HCT-116
[11] = Reduced DLD-1 viability, concentration-response, CellTiter-Glo luminescence (AID 1117352); assay type: functional
[12] = cytotoxicity toward HT-29 cells – cell-based, CellTiter-Glo luminescence, IC50, dose response (AID 1117330); assay type: functional
[13] = cytotoxicity toward HCT116 cells – cell-based, CellTiter-Glo luminescence, IC50, dose response (AID 1117332); assay type: functional; conditions: HCT-116
[14] = cytotoxicity toward Colo320 cells – cell-based, CellTiter-Glo luminescence, IC50, dose response (AID 1117334); assay type: functional; conditions: COLO 320
[15] = RKO cell viability reduction, dose response, CellTiter-Glo luminescence (AID 1117322); assay type: functional
[16] = SNU-C1 cell viability reduction, dose response, CellTiter-Glo luminescence (AID 1117323); assay type: functional, cell-based
[17] = CellTiter-Glo luminescence survival assay, SW480 colon tumor line, concentration-response curve, half-maximal inhibitory concentration (AID 1117338); assay type: functional
[18] = HPDE-C7 pancreatic duct cell viability loss – fluorescence, HTS (AID 430); assay type: functional, cell-based; conditions: Homo sapiens
[19] = viability loss of HPDE-C7K cells – cell-based, fluorescence, HTS, primary screen (AID 431); assay type: functional; conditions: Homo sapiens

Procathepsin L, sequence (P07711 whole entry): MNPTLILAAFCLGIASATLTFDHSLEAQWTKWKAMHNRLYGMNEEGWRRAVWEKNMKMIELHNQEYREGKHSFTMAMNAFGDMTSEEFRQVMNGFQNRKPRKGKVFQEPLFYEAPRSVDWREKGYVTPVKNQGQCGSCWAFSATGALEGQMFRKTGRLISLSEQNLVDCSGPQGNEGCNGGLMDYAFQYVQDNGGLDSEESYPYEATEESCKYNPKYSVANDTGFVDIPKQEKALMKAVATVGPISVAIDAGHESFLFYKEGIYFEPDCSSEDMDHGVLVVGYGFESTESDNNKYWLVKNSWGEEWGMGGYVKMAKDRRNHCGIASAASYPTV
Mitogen-activated protein kinase 10, sequence (P53779 whole entry): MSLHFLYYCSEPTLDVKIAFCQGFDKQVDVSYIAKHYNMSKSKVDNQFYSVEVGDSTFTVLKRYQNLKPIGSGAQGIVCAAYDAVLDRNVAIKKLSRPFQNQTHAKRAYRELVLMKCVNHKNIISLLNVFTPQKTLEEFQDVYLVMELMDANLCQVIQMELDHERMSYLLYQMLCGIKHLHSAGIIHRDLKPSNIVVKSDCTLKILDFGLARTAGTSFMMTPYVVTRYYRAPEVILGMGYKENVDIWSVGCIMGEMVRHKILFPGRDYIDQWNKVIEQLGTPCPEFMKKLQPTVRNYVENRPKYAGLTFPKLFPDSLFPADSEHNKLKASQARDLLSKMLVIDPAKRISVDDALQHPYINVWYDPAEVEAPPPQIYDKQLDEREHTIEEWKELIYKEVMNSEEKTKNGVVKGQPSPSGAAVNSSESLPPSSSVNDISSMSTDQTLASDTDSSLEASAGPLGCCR
Sphingosine 1-phosphate receptor 2, sequence (O95136 whole entry): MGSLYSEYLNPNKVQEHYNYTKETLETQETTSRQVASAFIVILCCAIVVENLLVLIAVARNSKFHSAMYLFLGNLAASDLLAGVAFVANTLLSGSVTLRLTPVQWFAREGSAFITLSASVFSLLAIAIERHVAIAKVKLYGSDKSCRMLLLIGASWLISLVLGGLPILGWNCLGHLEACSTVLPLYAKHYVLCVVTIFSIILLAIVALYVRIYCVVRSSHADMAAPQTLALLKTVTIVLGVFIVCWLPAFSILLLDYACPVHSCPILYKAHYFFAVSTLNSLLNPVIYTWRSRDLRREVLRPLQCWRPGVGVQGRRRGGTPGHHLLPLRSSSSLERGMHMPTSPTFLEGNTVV

CC(C)(C)c1nc2ccccc2c(=O)n1N1C(=O)c2ccccc2C1=O
IC50 (Procathepsin L): > 59.6 µM (not active) | IC50 (Aminopeptidase N): 16.1 µM (active) | IC50 (Aspartyl aminopeptidase): > 73.5 µM (not active)

CCC(CC)c1nc2cc(OC)c(OC)cc2c(=O)o1
IC50 [1]: > 100 µM (active)

Cc1cc(NC(=O)CSC2=Nc3ccccc3C3=NC(Cc4ccccc4)C(=O)N23)[nH]n1 (stereo not given)
IC50 [2]: 11.3 µM (not active)

Cc1cc(C)cc(N2CC(C(=O)O)CC2=O)c1 (stereo not given)
IC50 [3]: > 109 µM (inactive) | IC50 [4]: > 83.4 µM (inactive)

COc1ccccc1NC(=O)c1ccc(C(=O)Nc2ccccc2OC)nc1
EC50 [5]: 0.0686 µM (active)

Cn1c(-c2c(N)n(CCCc3ccccc3)c3nc4ccccc4nc23)nc2ccccc21
IC50 [6]: 8 µM (active) | EC50 [7]: 1.17 µM (active) | EC50 [8]: > 30 µM (not active)

O=C(Cc1ccc(-c2ccccc2)cc1)NC1CCCC1
IC50 [3]: > 109 µM (inactive) | IC50 [4]: > 83.2 µM (inactive)

COC(=O)c1c(C#N)c(N)nc2c1CCCC2
IC50 [2]: 60.1 µM (not active)

Cn1c(O)cc(=O)nc1SCC(=O)Nc1cccc2ccccc12
IC50 (Procathepsin L): > 59.6 µM (not active) | EC50 (Streptococcus): 24.8 µM (active) | IC50 (Aspartyl aminopeptidase): > 73.5 µM (not active) | IC50 (Leucine aminopeptidase): 7.59 µM (active) | EC50 (Streptokinase A): > 150 µM (not active) | EC50 [9]: > 150 µM (not active)

CCC=CCC=CCC=CCCCCCCCC(=O)O
IC50 [10]: > 20 µM (inactive) | IC50 [11]: > 20 µM (inactive) | IC50 [12]: > 20 µM (inactive) | IC50 [13]: > 20 µM (inactive) | IC50 [14]: > 20 µM (inactive) | IC50 [15]: > 20 µM (inactive) | IC50 [16]: > 20 µM (inactive) | IC50 [17]: > 20 µM (inactive)

O=c1c2ccccc2[nH]c(=S)n1CCN1CCC(=C(c2ccc(F)cc2)c2ccc(F)cc2)CC1 [DIACYLGLYCEROL KINASE INHIBITOR II]
EC50 [18]: 3.94 µM (active) | EC50 [19]: 4.21 µM (active)
